Results taken from ChEMBL document CHEMBL5724696, “Autophagy assay results for EUbOPEN Chemogenomics Library” (2024).
Values joined by “and” are separate entries in the source; they are usually repeats but may differ in a detail not shown here. Identical values can stand only once.

Legend:
Format in all cases: functional, Homo sapiens
U2OS [1] = experiment: (§1) Here: values are normalized to the negative (DMSO; defined as 0% autophagy induction) and positive (250nM Torin1; mTOR inhibitor; defined as maximal inducer of autophagy = 100%) control compounds and represented as % of autophagy induction. […] The impact of autophagy induction on cells is complex and depends on the affected target. As such, the magnitude of a phenotype may not be equally mirrored in the %-value of autophagy induction and vice versa. The dynamics of the induction may indicate the mode of activation: e.g. activation via phosphorylation or a signaling cascade may occur fast, while activation via transcription factors may take considerably longer. […] Of note, treatment concentrations may be sub-optimal for specific compounds, leading to false negative annotations.; conditions: Culturing Media DMEM, 1 % Penicillin/Streptomycin, 10% Fetal bovin serum Add-On: No, Screening Media Control DMEM, Screening Media Samples DMEM
U2OS [2] = experiment: as §1; conditions: Culturing Media DMEM, 1 % Penicillin/Streptomycin, 10% Fetal bovin serum Add-On: No, Screening Media Control DMEM, Screening Media Samples DMEM; remark: listed apart in the source
TERT-RPE1 = experiment: as §1; conditions: Culturing Media DMEM/F12 (1:1), 1 % Penicillin/Streptomycin, 10% Fetal bovin serum Add-On: No, Screening Media Control DMEM/F12 (1:1), Screening Media Samples DMEM/F12 (1:1)
[3] = Compound Concentration 0.5 uM, Timepoint 12 hours
[4] = Compound Concentration 0.5 uM, Timepoint 24 hours
[5] = Compound Concentration 0.5 uM, Timepoint 36 hours
[6] = Compound Concentration 0.5 uM, Timepoint 60 hours
[7] = Compound Concentration 2 uM, Timepoint 12 hours
[8] = Compound Concentration 2 uM, Timepoint 24 hours
[9] = Compound Concentration 2 uM, Timepoint 36 hours
[10] = Compound Concentration 2 uM, Timepoint 60 hours
[11] = Compound Concentration 10 uM, Timepoint 12 hours
[12] = Compound Concentration 10 uM, Timepoint 24 hours
[13] = Compound Concentration 10 uM, Timepoint 36 hours
[14] = Compound Concentration 10 uM, Timepoint 60 hours

Compound	autophagy induction (U2OS [1]; [3])	autophagy induction (U2OS [1]; [4])	autophagy induction (U2OS [1]; [5])	autophagy induction (U2OS [1]; [6])	autophagy induction (U2OS [1]; [7])	autophagy induction (U2OS [1]; [8])	autophagy induction (U2OS [1]; [9])	autophagy induction (U2OS [1]; [10])	autophagy induction (U2OS [1]; [11])	autophagy induction (U2OS [1]; [12])	autophagy induction (U2OS [1]; [13])	autophagy induction (U2OS [1]; [14])	autophagy induction (U2OS [2]; [3])	autophagy induction (U2OS [2]; [4])	autophagy induction (U2OS [2]; [5])	autophagy induction (U2OS [2]; [6])	autophagy induction (U2OS [2]; [7])	autophagy induction (U2OS [2]; [8])	autophagy induction (U2OS [2]; [9])	autophagy induction (U2OS [2]; [10])	further results
Cl.Clc1ccc(CCCOCCCN2CCCCC2)cc1 [PITOLISANT HYDROCHLORIDE]	13.8608%	9.201%	8.758%	0.1501%	-8.536%	-1.42%	-3.922%	-5.605%	1.329%	3.348%	1.993%	3.566%	15.5533%	6.616%	-57.7817%	-0.2681%	-2.233%	-2.143%	-60.8013%	-1.476%	autophagy induction (U2OS [2]; [11]): 10.0351%; autophagy induction (U2OS [2]; [12]): 1.34%; autophagy induction (U2OS [2]; [13]): -57.6898%; autophagy induction (U2OS [2]; [14]): -1.026%; autophagy induction (TERT-RPE1; Compound Concentration 0.5 uM, Timepoint 12 hours, 12 h, 0.5 µM): -3.0454% and 2.896%; autophagy induction (TERT-RPE1; Compound Concentration 0.5 uM, Timepoint 24 hours, 24 h, 0.5 µM): -1.513% and 3.003%; autophagy induction (TERT-RPE1; Compound Concentration 0.5 uM, Timepoint 36 hours, 36 h, 0.5 µM): -3.944% and 2.632%; autophagy induction (TERT-RPE1; Compound Concentration 0.5 uM, Timepoint 60 hours, 60 h, 0.5 µM): -4.171% and 0.01183%; autophagy induction (TERT-RPE1; Compound Concentration 2 uM, Timepoint 12 hours, 12 h, 2 µM): 0.8347% and 2.672%; autophagy induction (TERT-RPE1; Compound Concentration 2 uM, Timepoint 24 hours, 24 h, 2 µM): 0.6662% and 3.448%; autophagy induction (TERT-RPE1; Compound Concentration 2 uM, Timepoint 36 hours, 36 h, 2 µM): -1.283% and 2.753%; autophagy induction (TERT-RPE1; Compound Concentration 2 uM, Timepoint 60 hours, 60 h, 2 µM): -3.185% and 1.301%; autophagy induction (TERT-RPE1; Compound Concentration 10 uM, Timepoint 36 hours, 36 h, 10 µM): -0.5799% and 21.0375%
COc1ccccc1CN[C@H]1C2CCN(CC2)[C@H]1C(c1ccccc1)c1ccccc1 [CP-96345]	-3.495%	-5.808%	-2.326%	-4.4745%	5.091%	1.613%	-0.5186%	0.7913%	26.1721%	19.1804%	19.6555%	18.5295%	8.36%	2.83%	0.2431%	0.5109%	-21.7864%	-9.531%	-7.223%	-5.938%	autophagy induction (U2OS [2]; [11]): -2.456%; autophagy induction (U2OS [2]; [12]): -0.4585%; autophagy induction (U2OS [2]; [13]): -0.2201%; autophagy induction (U2OS [2]; [14]): -2.05%; autophagy induction (TERT-RPE1; [3]): -7.147%; autophagy induction (TERT-RPE1; [4]): -11.4989%; autophagy induction (TERT-RPE1; [5]): -14.454%; autophagy induction (TERT-RPE1; [6]): -21.453%; autophagy induction (TERT-RPE1; [7]): -6.616%; autophagy induction (TERT-RPE1; [8]): -10.9647%; autophagy induction (TERT-RPE1; [9]): -14.8934%; autophagy induction (TERT-RPE1; [10]): -18.8514%; autophagy induction (TERT-RPE1; [11]): 2.262%; autophagy induction (TERT-RPE1; [12]): 3.387%; autophagy induction (TERT-RPE1; [13]): 7.76%; autophagy induction (TERT-RPE1; [14]): 2.279%
